From patent US20120204273A1, “COMPOSITIONS RELATING TO A PHOSPHOPROTEIN AND METHODS OF USE” (SANFORD-BURNHAM MEDICAL RESEARCH INSTITUTE, priority 2010, published 2012)

System: 3T3-L1 adipocytes
Assay: myc-GLUT4-GFP translocation to the cell surface
Assay type: cell-based, mouse
Conditions: insulin 1 nM, 20 min
Description: FIG. 2, panels A-C show knockdown of CDP138 in 3T3-L1 adipocytes inhibits insulin-stimulated glucose transport (A) and myc-GLUT4-GFP translocation (B), but not endogenous GLUT4 movement to the periphery detected in TIRF zone (C). (A): Differentiated adipocytes at day 5 were transfected with siRNAs against mouse 5730419I09Rik or the scrambled siRNA (Scr) as described earlier (Jiang et al., 2003) for 60 hrs, then serum starved overnight. Cells were then treated with or without insulin (1 nM and 100 nM) for 30 min for the glucose uptake assay, or 15 min for immunoblotting of CDP138, pAkt, Akt and β-actin. Glucose transport data are presented as mean±SD of 4 independent experiments. *P<0.05 vs Scr Insulin (1 nM) group; **P<0.01 vs Scr Insulin (100 nM) group. (B): Day 5 adipocytes were transfected with siRNAs and myc-GLUT4-GFP for 60 hrs and then serum starved overnight. Cells were then treated with insulin (1 nM) for 20 min. Cell surface Myc-GLUT4-GFP was detected with anti-myc monoclonal Ab (9E10) and Alexa Fluor 568-labeled goat anti-mouse IgG in non-permeablized cells. The Myc signal and GFP signal were quantified as previously described (Jiang et al., 2002). Data presented are representative microscopic images and mean±SD of about 160 GFP-positive cells in each group from three independent experiments. **P<0.01 vs Scr Insulin (1 nM) group. […] GLUT4 was detected with a goat anti-GLUT4 Ab and Alexa Fluor 488-conjugated donkey anti-goat Ab in permeabilized cells. Top and middle panels show 100 nm TIRF zone and representative GLUT4 TIRFM images, respectively. Data are mean±SD of 3 independent experiments. **P<0.01 vs Scr Insulin groups.
GLUT4 translocation detection with wide field fluorescence and TIRF microscopy: Both wide field and TIRF microscopy were used to detect myc-GLUT4-GFP translocation to the cell surface as previously described (Jiang et al., 2002) and herein.
To test the effect of RNAi-induced gene specific knockdown of CDP138 or overexpression of CDP138 mutants on GLUT4 translocation, siRNAs or CDP138 constructs were transfected into adipocytes together with myc-GLUT4-GFP by electroporation as previously described (Jiang et al, 2003). […] Cells were washed with cold PBS, fixed with 4% formaldehyde and immunostained. Briefly, for siRNA study, the cell surface Myc-GLUT4-GFP was visualized with mouse anti-Myc Ab (9E10) and AlexaFluoro568-labeled goat anti-mouse secondary Ab (Invitrogen) in PBS containing 1% FBS. After washing, the coverslip were mounted with Prolong antifade reagent (Invitrogen, Eugene Oreg.). Fluorescence microscopy was carried as described below. Then, images were acquired with wide field microscopy as described below. For the study with overexpressed HAtagged CDP138 constructs, the cell surface Myc-GLUT4-GFP was visualized with rabbit anti-Myc Ab (Cell signaling, Inc) and AlexaFluoro568-labeled goat anti-rabbit secondary Ab (InVitrogen) in PBS containing 1% FBS. Cells were further permeabilized with PSB containing 0.5% Tween-20, and HA-tagged protein was detected with a mouse anti-HA epitope primary Ab followed by AlexaFluoro-350-labelled goat anti-mouse IgG. Insulin-induced myc-GLUT4 accumulation (AlexaFluoro-568 signal) within the evanescence excitation field (100 nm from dorsal membrane) in transfected adipocytes was measured with a Nikon Eclipse-Ti microscope equipped with a CoolSNAP HQ2 camera and laser scanning TIRF capacity. Total GLUT4-GFP signals and […] Alexa Fluoro-350 signals were acquired with wide field imaging to identify double-transfected cells. The ratio of myc-GLUT4 signal in the TIRF zone to the total Epi-GFP signal in wide field was used as a measure of GLUT4 translocation to the cell surface.
Image Analysis and Quantification: TIRF and wide field fluorescence microscopy were performed using a Nikon inverted microscope (Melville, N.Y.) with a cooled charge-coupled device camera. […]

insulin
increase in GLUT4 translocation (cell surface myc / total GFP): 3 fold
